Test results as given in EP1172442A1, “VITAMIN D DERIVATIVES AND PROCESS FOR PRODUCING THE SAME” (MERCIAN CORPORATION, priority 1999, dated 2000).

What was measured:
[1] = test system: VDR (chicken small intestine receptor); test: Binding ability to vitamin D receptor (VDR), radio receptor assay (RRA), competition with 3H-1,25(OH)2D3; conditions: relative value of B/B0 50% value, 1,25(OH)2D3 taken to be 100; 4°C for 3 hours
Description: Binding ability to VDR was examined by the following radio receptor assay (RRA) method.
1,25(OH)2D3 and each specimen were serially diluted at from 10^-11 M to 10^-6 M. 20µL of a [26,27-^3H]-1,25-dihydroxyvitamin D3 (^3H-1,25(OH)2D3) solution and 60 µL of 1,25(OH)2D3 or each specimen solution were added in a small test tube, and 0.5 mL of a VDR (chicken small intestine receptor) solution was added and mixed, and then allowed to stand at 4°C for 3 hours. Then, after 0.125 mL of a dextran-active carbon suspension was added and mixed, the mixture was allowed to stand on ice for 30 minutes, ^3H-1,25(OH)2D3 unbound to VDR was removed by centrifugation at 3000 rpm for 15 minutes, and then the quantity of ^3H-1,25 (OH)2D3 bound to VDR was measured using 0.5 mL of the supernatant.
The binding ability to VDR of each specimen was evaluated by calculating and comparing the B/B0 50% value. […] The VDR binding ability was shown in Table 1 as a relative value of each specimen when B/B0 50% value of 1,25(OH)2D3 is taken to be 100.

[2] = test system: DBP (rat serum diluted with a barbital acetate buffer); test: Binding ability to vitamin D-bound protein (DBP), competitive protein binding assay (CPBA), competition with 3H-25(OH)D3; conditions: relative value of B/B0 50% value, 1,25(OH)2D3 taken to be 100; 4°C for 1 hour
Description: The binding ability to DBP was evaluated using the following competitive protein binding assay (CPBA). 1,25(OH)2D3 and each specimen were diluted to concentrations from 10^-11 M to 10^-5 M. 50 µL of a [26,27-^3H]-25-hydroxyvitamin D3 (^3H-25(OH)D3) solution and 100 µL of 1,25(OH)2D3 or each specimen solution were placed in a small test tube, and 1 mL of a DBP (rat serum diluted with a barbital acetate buffer) solution was added and mixed, and then allowed to stand at 4°C for 1 hour. Then, after 0.5 mL of a dextran-active carbon suspension was added and mixed, the mixture was allowed to stand on ice for 10 minutes, ^3H-25(OH)D3 unbound to DBP was removed by centrifugation at 3000 rpm for 15 minutes, and then the quantity of ^3H-25(OH)D3 bound to DBP was measured using 1 mL of the supernatant.
The binding ability to DBP of each specimen was evaluated by calculating and comparing the B/B0 50% value.

SMILES	Binding ability to VDR [1]	Binding ability to DBP [2]
C=C1C[C@@H](O)[C@H](O)C/C1=C/C=C1\CCC[C@]2(C)[C@@H]([C@H](C)CCCC(C)(C)O)CC[C@@H]12 [Example 1(1), 2α,25-dihydroxyvitamin D3]	32.480	11433.718
C=C1/C(=C\C=C2/CCC[C@]3(C)[C@@H]([C@H](C)CCCC(C)CO)CC[C@@H]23)C[C@@H](O)C[C@@H]1O (stereo partly drawn) [Example 2, 1α,26-dihydroxyvitamin D3]	107.557	168.529
CC(C)C(O)CC[C@@H](C)[C@H]1CC[C@H]2/C(=C/C=C3/C[C@@H](O)C[C@H](O)/C3=C\F)CCC[C@]12C (stereo partly drawn) [Example 4(1), 19-fluoro-1α,24-dihydroxyvitamin D3]	72.878	23.665
C[C@H](CCCC(C)(C)O)[C@H]1CC[C@H]2/C(=C/C=C3/C[C@@H](O)C[C@H](O)/C3=C\F)CCC[C@]12C [Example 4(2), 19-fluoro-1α,25-dihydroxyvitamin D3]	62.386	35.792
CC(CO)CCC[C@@H](C)[C@H]1CC[C@H]2/C(=C/C=C3/C[C@@H](O)C[C@H](O)/C3=C\F)CCC[C@]12C (stereo partly drawn) [Example 4(3), 19-fluoro-1α,26-dihydroxyvitamin D3]	29.129	35.257
C=C1CC[C@H](O)C(F)(F)/C1=C/C=C1\CCC[C@]2(C)[C@@H]([C@H](C)CCC(O)C(C)C)CC[C@@H]12 (stereo partly shown) [Example 5(1), 4,4-difluoro-24-hydroxyvitamin D3]	81.860	16.633
C=C1CC[C@H](O)C(F)(F)/C1=C/C=C1\CCC[C@]2(C)[C@@H]([C@H](C)CCCC(C)CO)CC[C@@H]12 (stereo partly shown) [Example 5(3), 4,4-Difluoro-26-hydroxyvitamin D3]	34.067	28.106
C=C1/C(=C\C=C2/CCC[C@]3(C)[C@@H]([C@H](C)CCCC(C)(C)O)CC[C@@H]23)C(F)(F)[C@@H](O)C[C@@H]1O [Example 6(2), 4,4-difluoro-1α,25-dihydroxyvitamin D3]	92.716	26.684
